Assay results as given in patent US8633208B2, “6-1H-imidazo-quinazoline and quinolines derivatives, new MAO inhibitors and imidazoline receptor ligands” (Rottapharm S.p.A, priority 2008, dated 2014).
Structures can show the parent of a compound that is named as a salt. Where two headings read alike, the source gives them in different places.

Legend:
human recombinant MAO-A = human recombinant MAO-A (Homo sapiens (Human), UniProt P21397); test: Monoaminooxidase (MAO) activity assay, MAO-Glo luminescent method, MAO-A
I2 Imidazoline Receptor = test: Binding study towards I2 imidazoline receptor subtype in rat brain ([3H]2-BFI displacement); details: read-out: [3H]2-BFI binding IC50; rat whole brain membranes, [3H]-2BFI 2.5x10-9 M, 90 min at 25° C.
Protocol: Binding Study Towards I2 Imidazoline Receptor Subtype in Rat Brain.
Male Wistar rats (240-300 g, Harlan, Italy) were sacrificed by decapitation. Whole brains were immediately removed on ice and homogenised in 10 volumes of buffered sucrose (0.32M in 50 mM Tris-HCl, pH 7.4 at 4° C.) using a motor driven Teflon-glass homogeniser. The homogenate was centrifuged at 1000×g for 10 min at 4° C. The resultant supernatants were pooled and centrifuged at 32000×g for 20 min at 4° C. The supernatants were discarded and each pellet suspended in 10 volumes of assay buffer (50 mM Tris-HCl, 1 mM MgCl2, pH 7.4 at 4° C.) and spun at 32000×g for 20 min at 4° C. The pellets were washed twice by repeated centrifugation at 32000×g for 20 min at 4° C. The final pellets were stored at −80° C. until use. Prior to radioligand binding studies, membrane pellets were thawed and washed a further 4 times by re-suspension in 10 volumes of assay buffer (as above) and repeated centrifugation to remove any possible endogenous inhibitors of binding. […] Non specific binding was determined in the presence of 10^-5 M BU224 (Tocris Bioscience). The incubation, in a final volume of 1 ml, was performed in polystyrene multiwell 24, started adding membranes suspension and was carried out for 90 min at 25° C. With the exception of total binding and non specific binding, all concentration points were performed in duplicate. Compounds were tested in 3-5 different concentrations, ranging from 10^-10 M to 10^-5 M final concentration.

human recombinant MAO-B = human recombinant MAO-B (Homo sapiens (Human), UniProt P27338); test: Monoaminooxidase (MAO) activity assay, MAO-Glo luminescent method, MAO-B
Protocol: Monoaminooxidase (MAO) Activity Assay.
Inhibitory activity of compounds was evaluated by a homogeneous luminescent method, the MAO-Glo™ Assay (Promega), measuring the monoamine oxidase activity (MAOs) from recombinant source (microsomes from baculovirus infected insect cells, Sigma). Experiments were performed according to the Supplier's procedure, incubating human recombinant MAO-A or MAO-B with a luminogenic substrate, a derivative of beetle luciferin ((4S)-4,5-dihydro-2-(6-hydroxybenzothiazolyl)-4-thiazolecarboxylic acid). […] The MAO-Glo™ Assay was performed in two steps:
Step 1. The MAO reaction: MAO substrate was incubated with MAO-A or MAO-B (1 μg/sample) in the absence (Total activity) or presence (modulated activity) of test compounds. Total activity was determined in the presence the appropriate solvent. […] Reaction started adding the enzyme solution and samples were incubated for 60 min at room temperature. For negative control reaction, samples of MAO reaction buffer (100 mM Hepes, 5% glycerol, pH 7.5) indeed the test compound were included. For MAO-B activity assay, MAO reaction buffer contain 10% DMSO, in order to increase enzymatic activity. Step 2. […] At the end of incubation 50 μl of Luciferin Detection reagent were added to each well, plate was incubated at room temperature for 20 min, then luminescent signal was detected by luminometer (integration time 0.25-1 sec per well). […] Net MAO-dependent luminescence (net RLU) were calculated by subtracting the average luminescence of the negative control reaction without MAO enzyme. A reduction of net signal in the presence of test compound, with respect to total activity, reflect its effect on MAOs activity. […] A percentage of inhibition for each concentration tested were calculated and the IC50 value was estimated by linear regression.

CD1 Mice [1] = test: Tail suspension test in mice; format: in vivo; details: for ED50: oral
Protocol: Tail Suspension Test in Mice
To evaluate novel antidepressants compounds several animal models have been developed. […] The antidepressant effect of representative examples of compounds of formula (I) has been evaluated according to the procedure below. The immobility was induced according to the procedure of Stem et al. (1985). CD1 Mice (Harlan, Italy) were individually suspended 75 cm above the top with an adhesive tape placed 1 cm from the tip of the tail. Immobility duration was recorded for 5 min. Mice were considered immobile only when they hung passively and completely motionless. Compounds were given orally, 30 min before the test at doses ranging between 0.3 and 30 mg/kg. Data collected were expressed as mean percent effect (MPE), which represents the % of inhibition in immobility time between the animals treated with representative compounds of formula (I) and the controls that received only the vehicle.

rats = test: CFA model of inflammatory pain in rats (Randall-Selitto), potentiation of a low dose of morphine; format: in vivo
CD1 Mice [2] = details: commercially available antidepressant drugs, subcutaneous; Millan MJ et al., 2001 JPET, 298(2): 581-591; cited from earlier work
[3] = Table 3, dose 3 mg/Kg OS, 30 min before the test
[4] = Table 3, dose 10 mg/Kg OS, 30 min before the test
[5] = Table 3, dose 30 mg/Kg OS, 30 min before the test
[6] = Table 3, dose yielding 50% reduction of immobility
[7] = read-out: MAO A activity IC50, human recombinant MAO-A, substrate 40 μM, 60 min room temperature

Chain of human recombinant MAO-B (P27338 whole entry): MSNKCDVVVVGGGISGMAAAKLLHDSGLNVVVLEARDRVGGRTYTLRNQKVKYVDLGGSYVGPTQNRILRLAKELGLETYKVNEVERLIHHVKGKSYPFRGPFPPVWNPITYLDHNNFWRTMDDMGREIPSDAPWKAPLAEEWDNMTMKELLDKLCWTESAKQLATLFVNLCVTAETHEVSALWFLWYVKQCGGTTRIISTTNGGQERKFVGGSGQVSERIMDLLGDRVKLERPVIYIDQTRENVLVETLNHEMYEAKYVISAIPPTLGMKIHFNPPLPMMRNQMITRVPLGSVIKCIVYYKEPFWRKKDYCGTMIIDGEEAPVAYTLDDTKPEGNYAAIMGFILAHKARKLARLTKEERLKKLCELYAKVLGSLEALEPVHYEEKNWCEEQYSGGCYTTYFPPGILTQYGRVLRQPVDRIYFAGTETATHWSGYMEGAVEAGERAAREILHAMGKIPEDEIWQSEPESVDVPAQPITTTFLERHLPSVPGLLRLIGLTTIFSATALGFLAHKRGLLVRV
Chain of human recombinant MAO-A (P21397 whole entry): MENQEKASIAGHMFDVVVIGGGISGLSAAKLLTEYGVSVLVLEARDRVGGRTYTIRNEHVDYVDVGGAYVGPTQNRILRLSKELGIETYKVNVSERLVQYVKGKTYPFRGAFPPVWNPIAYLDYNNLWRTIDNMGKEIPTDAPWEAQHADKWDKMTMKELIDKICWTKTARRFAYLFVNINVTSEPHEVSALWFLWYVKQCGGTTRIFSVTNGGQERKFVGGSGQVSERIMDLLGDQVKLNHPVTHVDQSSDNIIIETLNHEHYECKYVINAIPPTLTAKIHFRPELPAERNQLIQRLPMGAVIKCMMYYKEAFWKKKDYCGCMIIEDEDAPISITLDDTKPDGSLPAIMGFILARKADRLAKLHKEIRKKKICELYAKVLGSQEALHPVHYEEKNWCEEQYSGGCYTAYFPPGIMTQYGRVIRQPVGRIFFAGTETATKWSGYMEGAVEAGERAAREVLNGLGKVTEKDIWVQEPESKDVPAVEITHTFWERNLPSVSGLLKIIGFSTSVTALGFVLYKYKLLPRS

Compound | IC50 (human recombinant MAO-A) | IC50 (I2 Imidazoline Receptor) | IC50 (human recombinant MAO-B) | IC50 (human recombinant MAO-A; [7]) | also measured
COc1ccccc1-c1ncc2cc(-n3cnc(C)c3)ccc2n1 [Example 7, [6-(4-methyl-1H-imidazol-1-yl)-2-(2-methoxyphenyl)]quinazoline] | > 10000 nM | 2180 nM | > 10 µM |  | melting point: 160.6 to 162 °C
Cc1cncn1-c1ccc2nc(-c3ccccc3)ncc2c1 [Example 5, [6-(5-methyl-1H-imidazol-1-yl)-2-phenyl]quinazoline] | > 10000 nM | 1180 nM | > 10 µM |  | MPE (% inhibition in immobility time) (CD1 Mice [1]; [3]): 41%; MPE (% inhibition in immobility time) (CD1 Mice [1]; [4]): 61%; MPE (% inhibition in immobility time) (CD1 Mice [1]; [5]): 91%; ED50 (CD1 Mice [1]; [6]): 4.9 mg/Kg; OS
c1cn(-c2ccc3nc(-c4ccc5c(c4)OCO5)ccc3c2)cn1 [Example 16, [6-(1H-imidazol-1-yl)-2-(1,3-benzodioxol-5-yl)]quinoline dihydrochloride] | > 10000 nM | 190 nM | > 10 µM |  | MPE (% inhibition in immobility time) (CD1 Mice [1]; [3]): 41%; MPE (% inhibition in immobility time) (CD1 Mice [1]; [4]): 66%; MPE (% inhibition in immobility time) (CD1 Mice [1]; [5]): 100%; ED50 (CD1 Mice [1]; [6]): 4.6 mg/Kg; OS
CN1CC[C@]23c4c5ccc(O)c4O[C@H]2[C@@H](O)C=C[C@H]3[C@H]1C5 [Morphine, reference compound] |  |  |  |  | MPE 2 h (difference in pain threshold) (rats; 2 h, Example 1 1.5 mg/Kg OS and/or Morphine 0.5 mg/Kg SC): 42.88%; MPE 3 h (difference in pain threshold) (rats; 3 h, Example 1 1.5 mg/Kg OS and/or Morphine 0.5 mg/Kg SC): 30.49%; MPE 4 h (difference in pain threshold) (rats; 4 h, Example 1 1.5 mg/Kg OS and/or Morphine 0.5 mg/Kg SC): 15.04%
Fc1ccc(-c2ccc3cc(-n4ccnc4)ccc3n2)cc1 [Example 21, [6-(1H-imidazol-1-yl)-2-(4-fluorophenyl)]quinoline dihydrochloride] | > 10000 nM | 240 nM | > 10 µM |  | MPE (% inhibition in immobility time) (CD1 Mice [1]; [3]): 36%; MPE (% inhibition in immobility time) (CD1 Mice [1]; [4]): 72%; MPE (% inhibition in immobility time) (CD1 Mice [1]; [5]): 89%; ED50 (CD1 Mice [1]; [6]): 4.9 mg/Kg; OS
Cc1cc(OC(F)(F)F)ccc1-c1ccc2cc(-n3ccnc3)ccc2n1 [Example 24, [6-(1H-imidazol-1-yl)-2-(2-methyl-4-trifluoromethoxyphenyl)]quinoline dihydrochloride] |  | 1140 nM | > 10 µM | 280 nM | 
c1cn(-c2ccc3nc(-c4ccoc4)ccc3c2)cn1 [Example 20, [6-(1H-imidazol-1-yl)-2-(3-furyl)]quinoline dihydrochloride] |  | 1190 nM | > 10 µM | 250 nM | 
CN(C)c1ccc(-c2ccc3cc(-n4ccnc4)ccc3n2)cc1 [Example 22, [6-(1H-imidazol-1-yl)-2-(4-dimethylaminophenyl)]quinoline trihydrochloride] |  | 3780 nM |  | 2090 nM | IC50 (human recombinant MAO-B; read-out: MAO B activity IC50, human recombinant MAO-B, substrate 4 μM, 60 min room temperature): 1.49 µM
c1ccc(-c2ncc3cc(-n4ccnc4)ccc3n2)cc1 [Example 1, [6-(1H-imidazol-1-yl)-2-phenyl]quinazoline] |  | 680 nM | > 10 µM | 220 nM | MPE 2 h (difference in pain threshold) (rats; rat, in vivo): 17.19%; MPE 3 h (difference in pain threshold) (rats; rat, in vivo): 6.61%; MPE 4 h (difference in pain threshold) (rats; rat, in vivo): 2.46%; antidepressant-like effect in the presence of Idazoxan (CD1 Mice [1]; 0.3 mg/Kg Idazoxan, antagonist of imidazoline (I2) receptors): blocked; MPE (% inhibition in immobility time) (CD1 Mice [1]; Table 3, dose 0.3 mg/Kg OS, 30 min before the test): 35%; MPE (% inhibition in immobility time) (CD1 Mice [1]; Table 3, dose 1 mg/Kg OS, 30 min before the test): 38%; MPE (% inhibition in immobility time) (CD1 Mice [1]; [3]): 40%; MPE (% inhibition in immobility time) (CD1 Mice [1]; [4]): 66%; MPE (% inhibition in immobility time) (CD1 Mice [1]; [5]): 84%; ED50 (CD1 Mice [1]; [6]): 4.8 mg/Kg; OS; MPE (% inhibition in immobility time) (CD1 Mice [1]; Table 4, Example 1 dose 3 mg/Kg OS, alone or with Idazoxan 0.3 mg/Kg IP): 43%; MPE (% inhibition in immobility time) (CD1 Mice [1]; Table 4, Example 1 dose 10 mg/Kg OS, alone or with Idazoxan 0.3 mg/Kg IP): 54%; MPE (% inhibition in immobility time) (CD1 Mice [1]; Table 4, Example 1 dose 30 mg/Kg OS, alone or with Idazoxan 0.3 mg/Kg IP): 97%; ED50 (CD1 Mice [1]; Table 4): 5.1 mg/Kg; OS
COc1ccc(C(CN(C)C)C2(O)CCCCC2)cc1 (stereo not drawn) [Venlafaxine] |  |  |  |  | ED50 (CD1 Mice [2]): 11.7 mg/Kg; SC
Cc1nccn1-c1ccc2nc(-c3ccccc3)ncc2c1 [Example 2, [6-(2-methyl-1H-imidazol-1-yl)-2-phenyl]quinazoline] | > 10000 nM | 2400 nM | > 10 µM |  | melting point: 198.3 to 200.3 °C; MPE (% inhibition in immobility time) (CD1 Mice [1]; [3]): 17%; MPE (% inhibition in immobility time) (CD1 Mice [1]; [4]): 77%; MPE (% inhibition in immobility time) (CD1 Mice [1]; [5]): 83%; ED50 (CD1 Mice [1]; [6]): 7.1 mg/Kg; OS
COc1ccc(-c2ccc3cc(-n4ccnc4)ccc3n2)cc1 [Example 18, [6-(1H-imidazol-1-yl)-2-(4-methoxyphenyl)]quinoline dihydrochloride] |  | 1900 nM | > 10 µM | 670 nM | 
COc1ccc(-c2ncc3cc(-n4cnc(C)c4)ccc3n2)cc1 [Example 6, [6-(4-methyl-1H-imidazol-1-yl)-2-(4-methoxyphenyl)]quinazoline] | > 10000 nM | 1160 nM | > 10 µM |  | 
CN(C)CCCC1(c2ccc(F)cc2)OCc2cc(C#N)ccc21 (stereo not drawn) [Citalopram] |  |  |  |  | ED50 (CD1 Mice [2]): 8.8 mg/Kg; SC
COc1ccccc1-c1ccc2cc(-n3ccnc3)ccc2n1 [Example 19, [6-(1H-imidazol-1-yl)-2-(2-methoxyphenyl)]quinoline dihydrochloride] | > 10000 nM | 3160 nM | > 10 µM |  | 
Cc1cn(-c2ccc3nc(-c4ccc5c(c4)OCO5)ncc3c2)cn1 [Example 9, [6-(4-methyl-1H-imidazol-1-yl)-2-(1,3-benzodioxol-5-yl)]quinazoline] | > 10000 nM | 1040 nM | > 10 µM |  | 
c1cn(-c2ccc3nc(-c4ccc5occc5c4)ncc3c2)cn1 [Example 14, [6-(1H-imidazol-1-yl)-2-(benzofuran-5-yl)-]quinazoline dihydrochloride trihydrate] |  | 610 nM | > 10 µM | 350 nM | 
c1cn(-c2ccc3nc(-c4ccc5c(c4)OCCO5)ncc3c2)cn1 [Example 15, [6-(1H-imidazol-1-yl)-2-(2,3-dihydro-1,4-benzodioxin-6-yl)]quinazoline] | > 10000 nM | 500 nM | > 10 µM |  | 
CCOc1ccccc1OC(c1ccccc1)C1CNCCO1 (stereo not drawn) [Reboxetine] |  |  |  |  | ED50 (CD1 Mice [2]): 4.2 mg/Kg; SC
Cc1cn(-c2ccc3nc(-c4ccccc4)ncc3c2)cn1 [Example 4, [6-(4-methyl-1H-imidazol-1-yl)-2-phenyl]quinazoline] |  | 480 nM | > 10 µM | 2060 nM | melting point: 201.9 to 202.8 °C
